PubChem BioAssay (NCI)
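How tested: cells in 96-well plates exposed to compound for 48 hours at five concentrations. TGI denotes the concentration required for complete inhibition of growth.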

Tests used:
Assay in all cases: growth of human tumour cells (NCI), 48 h
[1] = test system: IGROV1 ovarian
[2] = test system: LOX IMVI melanoma
[3] = test system: MCF7 breast
[4] = test system: NCI-H460 lung
[5] = test system: NCI/ADR-RES ovarian
[6] = test system: OVCAR-4 ovarian
[7] = test system: PC-3 prostate
[8] = test system: SF-539 CNS
[9] = test system: SNB-19 CNS
[10] = test system: SNB-75 CNS
[11] = test system: SW-620 colon
[12] = test system: T-47D breast
[13] = test system: TK-10 renal
[14] = test system: UACC-62 melanoma
[15] = test system: EKVX NSCLC

SMILES | TGI [1] | TGI [2] | TGI [3] | TGI [4] | TGI [5] | TGI [6] | TGI [7] | TGI [8] | TGI [9] | TGI [10] | TGI [11] | TGI [12] | TGI [13] | TGI [14] | TGI [15]
COc1ccc(C2C(C#N)=C(S)N(C3OC(CO)C(O)C(O)C3O)C(C)=C2C(C)=O)cc1 (stereo not given) | > 100 µM | > 100 µM | > 100 µM | > 100 µM | > 100 µM | > 100 µM | > 100 µM | > 100 µM | > 100 µM | > 100 µM | > 100 µM | 97.1 µM | > 100 µM | > 100 µM | –
CN(/N=C/c1ccc(Cl)cc1)C1=NCCCCN1 | > 100 µM | > 100 µM | > 100 µM | > 100 µM | > 100 µM | > 100 µM | > 100 µM | > 100 µM | > 100 µM | > 100 µM | > 100 µM | > 100 µM | > 100 µM | > 100 µM | > 100 µM
O=c1c2cc(I)ccc2nc(SCc2nnco2)n1Cc1ccccc1 | > 100 µM | > 100 µM | > 100 µM | > 100 µM | > 100 µM | > 100 µM | > 100 µM | > 100 µM | > 100 µM | > 100 µM | > 100 µM | > 100 µM | > 100 µM | > 100 µM | > 100 µM
COC12C=CC(CC1)C(C)(C)C2OS(C)(=O)=O (stereo not given) | > 100 µM | – | > 100 µM | > 100 µM | > 100 µM | > 100 µM | > 100 µM | > 100 µM | > 100 µM | > 100 µM | > 100 µM | > 100 µM | > 100 µM | > 100 µM | > 100 µM
CCOC(=O)C(NC(=O)CC)(Nc1ccc(S(=O)(=O)Nc2ccc(OC)nn2)cc1)C(F)(F)F (stereo not given) | > 100 µM | > 100 µM | > 100 µM | > 100 µM | > 100 µM | > 100 µM | > 100 µM | > 100 µM | > 100 µM | > 100 µM | > 100 µM | > 100 µM | > 100 µM | > 100 µM | > 100 µM
O=C(NNS(=O)(=O)c1ccccc1)c1csc(NC(=S)NC2CCCCC2)n1 | 85.1 µM | 33.9 µM | > 100 µM | – | > 100 µM | > 100 µM | > 100 µM | 62.3 µM | – | > 100 µM | 72.9 µM | 52.9 µM | > 100 µM | 61.3 µM | > 100 µM
C[C@]12CC[C@H](O)CC1=CC[C@@H]1[C@@H]2CC[C@]2(C)C(=O)/C(=C/c3ccc([N+](=O)[O-])cc3)C[C@@H]12 | 21.8 µM | 22.5 µM | > 100 µM | > 100 µM | 61.1 µM | 32.3 µM | 31 µM | 20.9 µM | 27.8 µM | 9.67 µM | > 100 µM | 61.6 µM | – | > 100 µM | 24.9 µM
CN(C)C=NCC(O)c1ccccc1 (stereo not given) | > 100 µM | > 100 µM | > 100 µM | > 100 µM | > 100 µM | > 100 µM | > 100 µM | > 100 µM | > 100 µM | > 100 µM | > 100 µM | > 100 µM | > 100 µM | > 100 µM | > 100 µM
O=C1O[C@H]2C3C4CCC(C4[C@@H]2I)[C@H]13 (stereo not given in full) | > 100 µM | > 100 µM | > 100 µM | > 100 µM | > 100 µM | > 100 µM | > 100 µM | > 100 µM | > 100 µM | > 100 µM | > 100 µM | > 100 µM | > 100 µM | > 100 µM | > 100 µM
O=C1C=C(O)c2c(O)ccc(O)c2C1=O | > 100 µM | > 100 µM | > 100 µM | > 100 µM | > 100 µM | > 100 µM | > 100 µM | > 100 µM | > 100 µM | > 100 µM | > 100 µM | > 100 µM | > 100 µM | > 100 µM | –
CN(C)CC1CCCc2ccccc2C1=O (stereo not given) | 4.17 µM | 4.49 µM | 0.644 µM | 39.9 µM | 17.5 µM | 2.01 µM | 3 µM | 10.1 µM | 26.4 µM | 56.2 µM | – | 17 µM | 14.7 µM | 6.18 µM | 3.4 µM
CS(=O)(=O)OCC1CCCCCCCCCCC12SCCCS2 (stereo not given) | > 100 µM | > 100 µM | > 100 µM | > 100 µM | > 100 µM | > 100 µM | > 100 µM | > 100 µM | > 100 µM | – | > 100 µM | > 100 µM | > 100 µM | > 100 µM | > 100 µM
OC(C1CCCCCCCCCC1)C(O)C1CCCCCCCCCC1 (stereo not given) | > 100 µM | > 100 µM | > 100 µM | > 100 µM | > 100 µM | > 100 µM | > 100 µM | > 100 µM | > 100 µM | > 100 µM | > 100 µM | > 100 µM | > 100 µM | > 100 µM | > 100 µM
COc1cc(/C=C/C(=N\NC(=S)NN)c2sc(NNC(C)=O)nc2C)ccc1O | > 100 µM | > 100 µM | > 100 µM | > 100 µM | > 100 µM | > 100 µM | > 100 µM | > 100 µM | > 100 µM | > 100 µM | > 100 µM | > 100 µM | > 100 µM | > 100 µM | > 100 µM
COc1ccc(-c2nc(-c3cnccn3)n(Cc3ccccc3)n2)cc1 | > 100 µM | > 100 µM | > 100 µM | > 100 µM | > 100 µM | > 100 µM | > 100 µM | > 100 µM | > 100 µM | > 100 µM | > 100 µM | > 100 µM | – | > 100 µM | –
O=C1/C(=C/c2ccc(Cl)cc2)CCC1CN1CCOCC1 (stereo not given) | 10.5 µM | 5.24 µM | 21 µM | 39.2 µM | 22.5 µM | 34.1 µM | 18.5 µM | 34.6 µM | 30.8 µM | 37.9 µM | 6.71 µM | 6.25 µM | 18.3 µM | 15.8 µM | 30.7 µM
